Data from patent publication EP0395312B1, “Piperazine derivatives” (JOHN WYETH & BROTHER LIMITED, priority 1989, dated 1990).
Where two headings read alike, the source gives them in different places.

How the values were obtained:
[1] = biological target: T1, 5-HT1A receptor (Rattus norvegicus, UniProt P19327); assay: 5-HT1A receptor binding activity in rat hippocampal membrane homogenate
T1 construct: rat hippocampal membrane homogenate; from tissue; host or cells: rat hippocampus membrane homogenate
T1 sequence (P19327 1-422): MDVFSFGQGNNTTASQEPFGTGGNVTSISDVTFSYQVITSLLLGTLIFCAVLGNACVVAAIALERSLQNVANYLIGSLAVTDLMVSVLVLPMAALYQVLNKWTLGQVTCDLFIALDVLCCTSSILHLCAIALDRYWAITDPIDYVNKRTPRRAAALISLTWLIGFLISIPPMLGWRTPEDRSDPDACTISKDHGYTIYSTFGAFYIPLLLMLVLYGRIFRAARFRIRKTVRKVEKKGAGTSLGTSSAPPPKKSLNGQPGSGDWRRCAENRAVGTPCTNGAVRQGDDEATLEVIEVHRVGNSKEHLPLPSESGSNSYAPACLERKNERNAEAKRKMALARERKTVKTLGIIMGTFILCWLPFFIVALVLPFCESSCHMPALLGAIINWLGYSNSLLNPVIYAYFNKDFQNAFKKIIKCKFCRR
Protocol: The compounds of the invention were tested for 5-HT1A receptor binding activity in rat hippocampal membrane homogenate by the method of B S Alexander and M D Wood, J Pharm Pharmarol, 1988, 40, 888-891.

[2] = biological target: T2, 5-HT1A receptor (Cavia porcellus, UniProt A0A286Y074); assay: 5-HT1A receptor antagonism: antagonism of 5-carboxamidotryptamine in isolated ileum in vitro; parameters: species or system guine-pig; conditions: guinea-pig ileum in vitro, read-out: pA2 (converted)
T2 construct: in the guine-pig ileum in in vitro; from tissue; host or cells: guinea-pig isolated ileum
T2 sequence (A0A286Y074 1-421): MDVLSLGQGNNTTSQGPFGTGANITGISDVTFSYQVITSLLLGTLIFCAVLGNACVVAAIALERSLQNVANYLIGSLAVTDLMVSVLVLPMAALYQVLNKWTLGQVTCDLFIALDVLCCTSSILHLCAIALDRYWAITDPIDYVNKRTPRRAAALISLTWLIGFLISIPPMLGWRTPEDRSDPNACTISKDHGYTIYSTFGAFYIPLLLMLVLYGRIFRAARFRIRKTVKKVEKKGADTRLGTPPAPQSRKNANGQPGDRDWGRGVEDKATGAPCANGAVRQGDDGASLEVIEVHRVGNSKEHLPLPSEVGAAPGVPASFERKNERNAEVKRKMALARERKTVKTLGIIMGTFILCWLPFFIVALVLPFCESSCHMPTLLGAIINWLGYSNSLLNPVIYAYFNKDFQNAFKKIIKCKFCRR
Protocol: The compounds are tested for 5-HT1A receptor antagonism activity in a test involving the antagonism of 5-carboxamidotryptamine in the guine-pig ileum in in vitro (based upon the procedure of Fozard et al, Br J Pharmac 1985, 86, 601P).

[3] = biological target: D2 receptor sites (Homo sapiens, UniProt P14416); assay: Affinity for D2 receptor sites (procedure of Hancock et al); format: binding; conditions: read-out: Affinity for D2 site IC50
Chain of D2 receptor sites (P14416 whole entry): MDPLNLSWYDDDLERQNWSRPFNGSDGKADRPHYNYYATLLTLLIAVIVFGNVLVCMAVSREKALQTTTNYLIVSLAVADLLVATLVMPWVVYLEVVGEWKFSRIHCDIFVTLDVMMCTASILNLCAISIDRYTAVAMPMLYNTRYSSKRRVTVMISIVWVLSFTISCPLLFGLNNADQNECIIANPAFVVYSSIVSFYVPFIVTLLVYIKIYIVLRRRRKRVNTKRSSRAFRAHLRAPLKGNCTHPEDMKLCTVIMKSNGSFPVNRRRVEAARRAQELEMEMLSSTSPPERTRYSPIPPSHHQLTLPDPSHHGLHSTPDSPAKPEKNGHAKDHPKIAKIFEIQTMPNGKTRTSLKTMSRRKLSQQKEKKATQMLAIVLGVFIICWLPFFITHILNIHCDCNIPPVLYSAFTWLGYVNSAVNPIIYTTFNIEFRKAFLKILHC

[4] = test system: α1 sites; assay: Affinity for α1 sites (procedure of Morrow et al); format: binding; conditions: read-out: Affinity for α1 site IC50
[5] = 5-HT1A receptor binding, rat hippocampal membrane homogenate, read-out: IC50

| SMILES | IC50 [1, 5] | Kb [2] | IC50 [3] | IC50 [4] | IC50 [1] |
| --- | --- | --- | --- | --- | --- |
| COc1ccccc1N1CCN(CC(C(=O)NC2CCCCCCC2)c2ccccc2)CC1 (stereo not shown) [Example 35] | 16.5 nM | – | – | – | – |
| COc1ccccc1N1CCN(CC(C(=O)NC2CCCCC2)c2ccccc2)CC1 (stereo not shown) [Example 19] | 24 nM | 126 nM | 6.29 µM | – | – |
| COc1ccccc1N1CCN(CC(OC(=O)Nc2ccccc2)c2ccccc2)CC1 (stereo not shown) [Example 39, O-[2-[1-[4-(2-Methoxyphenyl)piperazinyl]]-1-phenylethyl]-N-phenylcarbamate] | 22 nM | – | – | – | – |
| O=C(NC1CCCCC1)C(CN1CCN(c2ncccn2)CC1)c1ccccc1 (stereo not shown) [Example 24, N-Cyclohexyl-2-phenyl-3-{1-[4-(2-pyrimidinyl)piperazinyl]}propanamide] | 75 nM | – | – | > 10000 nM | – |
| COc1ccccc1N1CCN(CC(C(=O)Nc2ccccc2)c2ccccc2)CC1 (stereo not shown) [Example 6, 3-{1-[4-(2-Methoxyphenyl)piperazinyl]}-2-phenyl-N-phenylpropanamide] | 127 nM | – | – | – | – |
| COc1ccccc1N1CCN(CC(C(=O)N(C)C)c2ccccc2)CC1 (stereo not shown) [Example 22, N,N-Dimethyl-3-{1-[4-(2-methoxyphenyl)piperazinyl]}-2-phenylpropanamide] | 45 nM | – | – | 1230 nM | – |
| COc1ccccc1N1CCN(CC(C(=O)NCCN2C(=O)CC3(CCCC3)CC2=O)c2ccccc2)CC1 (stereo not drawn) [Example 21, 8-{α-{1-[4-(2-methoxyphenyl)piperazinyl]methyl}phenylacetamidoethyl}-8-azaspiro[4.5]deca-7,9-dione] | 49 nM | 126 nM | – | 1200 nM | – |
| COc1ccccc1N1CCN(CC(C(=O)N2CCCCC2)c2ccccc2)CC1 (stereo not shown) [Example 33, 1-{3-{1-[4-(2-methoxyphenyl)piperazinyl]}-2-phenylpropionyl}piperidine] | 8 nM | – | – | – | – |
| COc1ccccc1N1CCN(CC(C(=O)OCC(C)C)c2ccccc2)CC1 (stereo not shown) [Example 26, 2-Methylpropyl 3-{1-[4-(2-methoxyphenyl)piperazinyl]}-2-phenylpropanoate] | 46 nM | 158 nM | – | 1090 nM | – |
| COc1ccccc1N1CCN(C[C@@H](NC(=O)C2CCCCC2)c2ccccc2)CC1 [Example 37, (S)-N-[2-[1-[4-(2-Methoxyphenyl)piperazinyl]]-1-phenylethyl]cyclohexanecarboxylic acid amide] | 45 nM | 25.1 nM | – | 7310 nM | – |
| CCOC(=O)C(Cc1ccccc1)CN1CCN(c2ccccc2OC)CC1 (stereo not shown) [Example 29, Ethyl 2-{1-[4-(2-methoxyphenyl)piperazinyl]methyl}-3-phenylpropanoate] | 25 nM | – | – | – | – |
| COc1ccccc1N1CCN(CC(C(=O)NC2CC2)c2ccccc2)CC1 (stereo not shown) [Example 31, cyclopropyl-amide] | 28 nM | 39.8 nM | – | – | – |
| COc1ccccc1N1CCN(CC(C(=O)N2CCCC2)c2ccccc2)CC1 (stereo not shown) [Example 32, 1-{3-{1-[4-(2-methoxyphenyl)piperazinyl]}-2-phenylpropionyl}pyrrolidine] | 21 nM | 158 nM | > 10 µM | 851 nM | – |
| CCOC(=O)N[C@H](CN1CCN(c2ccccc2OC)CC1)c1ccccc1 [Example 41, Ethyl(S)-N-[2-[1-[4-(2-methoxyphenyl)piperazinyl]]-1-phenylethyl]carbamate] | 88 nM | – | – | 2850 nM | – |
| COc1ccccc1N1CCN(CC(OC(=O)C2CCCCC2)c2ccccc2)CC1 (stereo not shown) [Example 40, 2-{1-[4-(2-Methoxyphenyl)piperazinyl]}-1-phenylethyl cyclohexanecarboxylate] | 78 nM | – | – | – | – |
| CNC(=O)C(CN1CCN(c2ccccc2OC)CC1)c1ccccc1 (stereo not shown) [Example 8, methylamide] | 45 nM | – | – | – | – |
| COc1ccccc1N1CCN(CC(C(=O)NCc2ccccc2)c2ccccc2)CC1 (stereo not shown) [Example 23, 3-{1-[4-(2-Methoxyphenyl)piperazinyl]}-2-phenyl-N-(phenylmethyl)propanamide] | 59 nM | 100 nM | – | – | – |
| COC(=O)C(CN1CCN(c2ccccc2OC)CC1)c1ccccc1 (stereo not shown) [Example 42, Methyl 3-[1-[4-(2-methoxyphenyl)piperazinyl]]-2-phenylpropionate] | 37 nM | 126 nM | – | 988 nM | – |
| COc1ccccc1N1CCN(CC(C(=O)N2CCCCCC2)c2ccccc2)CC1 (stereo not shown) [Example 34, 2,3,4,5,6,7-hexahydro-1-{3-{1-[4-(2-methoxyphenyl)piperazinyl]}-2-phenylpropionyl}-1H-azepine] | – | – | – | – | 9 nM |
